Experimental data as given in patent US20240115521A1, “COMPOUNDS FOR THE TREATMENT OF MYCOBACTERIAL DISEASES” (priority 2022, published 2024).

What was measured:
intracellular BCG = assay: microbe, parasite or virus in culture; assay type: cell-based; settings: Mycobacterium tuberculosis variant bovis BCG, read-out: Activity on intracellular BCG (% inhibition)
[1] = Mouse liver microsome stability; assay type: in vitro ADME; settings: result in words
Excerpt: (§1) Because the murine model will be used for initial drug efficacy studies and our goal is to develop drugs for human use, in vitro liver microsomal studies we performed using both mouse and human liver microsomes.

[2] = Human liver microsome assay; assay type: in vitro ADME; settings: for half-life: human liver microsomes; for Stability in human liver microsomal studies: result in words
Excerpt: as §1

[3] = Caco2 in vitro permeability assay; settings: human, Caco-2
Caco2 = Caco2 in vitro permeability assay; settings: for Caco2 PappA > B: apical to basolateral; for Caco2 PappB > A: basolateral to apical; for GI absorption by Caco-2 in vitro testing: result in words
intracellular Mtb = assay: Inhibition of Mtb growth inside primary human monocytes (3H-Uridine); assay type: cell-based; settings: Mycobacterium tuberculosis, Monocyte, all drugs tested at 20 μM
Experimental: FIGS. 1A & 1B show the structure and anti-mycobacterial activity of select troponoids. Shown are the structures (FIG. 1A) and calculated percent inhibitions of M. tuberculosis (Mtb) growth inside primary human monocytes by 4 selected troponoids (FIG. 1B).
Numerous troponoids have been synthesized and screened on Mtb and MAC and identified three with activities at a concentration of ≤5 μM. […] Briefly, primary monocytes were infected with mycobacteria (Mtb) for 4 hours, then co-cultured with indicated troponoids (2.5-20 μM) for 3 days. Then mammalian cells were lysed with saponin and residual mycobacteria quantified via ^3H-Uridine as previously described (Abate et al. 2015).

CCCCSc1cccc(O)c(=O)c1O [#693]
inhibition at 20 µM (intracellular BCG): 89.2%

CCCCSc1ccc(SCCCC)c(O)c(=O)c1O [#694]
Stability in mice liver microsomal studies [1]: stable
half-life [2]: 9.8 min
Stability in human liver microsomal studies [2]: stable
efflux ratio [3]: 19
Caco2 PappA > B (Caco2): 5.83E−06 sec*cm^2
Caco2 PappB > A (Caco2): 1.11E−04 sec*cm^2
GI absorption by Caco-2 in vitro testing (Caco2): good GI absorption
inhibition at 20 µM (intracellular BCG): 91.8%
inhibition at 20 µM (intracellular Mtb): 86.5%

Cc1ccc(S(=O)(=O)c2cccc(O)c(=O)c2O)cc1 [#697]
inhibition at 20 µM (intracellular BCG): 0%

CCCCCCS(=O)(=O)c1cccc(O)c(=O)c1O [#699]
inhibition at 20 µM (intracellular BCG): 0%

O=c1c(O)cccc(S)c1O [#701]
inhibition at 20 µM (intracellular BCG): 38.8%

Cc1cc(O)c(=O)c(O)cc1C(=O)N1CCSC1 [#712]
inhibition at 20 µM (intracellular BCG): 32.1%

COc1ccc(-c2ccccc(N)c2=O)cc1 [#762]
inhibition at 20 µM (intracellular BCG): 10.8%

CCn1cc(C(=O)O)c(=O)c2cc(F)c(N3CCN(c4cccccc4=O)CC3)cc21 [#764]
inhibition at 20 µM (intracellular BCG): 14.5%

O=c1cccccc1N1CCOCC1 [#765]
inhibition at 20 µM (intracellular BCG): 24.3%

O=c1cccccc1N1CCCC1 [#766]
inhibition at 20 µM (intracellular BCG): 14%

CCS(=O)(=O)N1CCN(C(=O)c2cc(O)c(=O)c(O)cc2C)CC1 [#802]
inhibition at 20 µM (intracellular BCG): 0%

Cc1ccc(Sc2cccc(O)c(=O)c2O)cc1 [#838]
inhibition at 20 µM (intracellular BCG): 29.3%

CCCCCCSc1cccc(O)c(=O)c1O [#840]
Stability in mice liver microsomal studies [1]: stable
half-life [2]: > 30 min
Stability in human liver microsomal studies [2]: stable
efflux ratio [3]: 14.6
Caco2 PappA > B (Caco2): 1.45E−05 sec*cm^2
Caco2 PappB > A (Caco2): 2.11E−04 sec*cm^2
GI absorption by Caco-2 in vitro testing (Caco2): good GI absorption
inhibition at 20 µM (intracellular BCG): 74.7%
inhibition at 20 µM (intracellular Mtb): 89.4%

CCCCCCSc1ccc(SCCCCCC)c(O)c(=O)c1O [#841]
Stability in mice liver microsomal studies [1]: stable
half-life [2]: 7 min
Stability in human liver microsomal studies [2]: stable
efflux ratio [3]: 1.7
Caco2 PappA > B (Caco2): 3.08E−06 sec*cm^2
Caco2 PappB > A (Caco2): 5.18E−06 sec*cm^2
GI absorption by Caco-2 in vitro testing (Caco2): good GI absorption
inhibition at 20 µM (intracellular BCG): 83.5%
inhibition at 20 µM (intracellular Mtb): 91.5%

COc1cc(-c2ccccc(S)c2=O)cc(OC)c1OC [#842]
inhibition at 20 µM (intracellular BCG): 25%

COc1cc(-c2ccccc(SSc3ccccc(-c4cc(OC)c(OC)c(OC)c4)c3=O)c2=O)cc(OC)c1OC [#843]
inhibition at 20 µM (intracellular BCG): 26.5%

O=c1c(S)ccccc1-c1ccccc1 [#844]
inhibition at 20 µM (intracellular BCG): 19.1%

O=C1Nc2ccccc2CCC1S (stereo not shown) [#845]
inhibition at 20 µM (intracellular BCG): 9%

O=C1Nc2ccccc2CCC1SC1CCc2ccccc2NC1=O (stereo not shown) [#846]
inhibition at 20 µM (intracellular BCG): 0%

Cc1ccc(C(=O)Oc2cc(C(C)C)cccc2=O)cc1 [#847]
inhibition at 20 µM (intracellular BCG): 28.8%

O=C(O)COc1cc(O)c2c(=O)cc(-c3ccccc3)oc2c1 [#859]
inhibition at 20 µM (intracellular BCG): 11.3%

COc1ccc(-c2cc(=O)c3c(O)cc(O)cc3o2)cc1 [#861]
inhibition at 20 µM (intracellular BCG): 0%

CC(C)c1nc(CN(C)C(=O)N[C@H](C(=O)N[C@@H](Cc2ccccc2)C[C@H](O)[C@H](Cc2ccccc2)NC(=O)OCc2cncs2)C(C)C)cs1 [Ritonavir, reference compound]
half-life [2]: < 5 min

CC(=O)CC(c1ccccc1)c1c(O)c2ccccc2oc1=O (stereo not shown) [Warfarin, reference compound]
Caco2 PappA > B (Caco2): 9.37E−05 sec*cm^2
Caco2 PappB > A (Caco2): 2.70E−04 sec*cm^2
